Source: patent US4481191A, “Method for controlling blood pressure” (The Regents of the University of California, priority 1983, dated 1984)

Tests used:
[1] = tested on: guinea pig ileum; conditions: cited from earlier work
[2] = tested on: mouse vas deferens; conditions: cited from earlier work
[3] = tested on: mice; conditions: studies with mice; cited from earlier work
[4] = tested on: visceral afferent receptors; assay: Sensitivity to morphine sulfate-induced bradycardia after subcutaneous pretreatment (FIG. 1); format: in vivo, rat; conditions: rats; for effect of prior administration on sensitivity to morphine sulfate bradycardia (ED50 of morphine sulfate for greater than 10% fall in heart rate): subcutaneously 30 minutes before testing with morphine sulfate
Excerpt: Turning to FIG. 1, the ordinate thereof represents the ED50 of morphine sulfate for producing a greater than 10% fall in heart rate in rats, and serves as an index of the sensitivity of the animal to the drug. Morphine sulfate functions as a "challenge" drug for producing bradycardia, and is a traditional standard for comparison. Lower ED50 values mean that the visceral afferent receptors are more sensitive. The abscissa of FIG. 1 represents doses of dynorphin(1-13) and Leu-enkephalin, respectively, in units of micromoles per kg body weight administered subcutaneously 30 minutes before testing with morphine sulfate.
The experiments for which the data is illustrated by FIGS. 1 and 2 were conducted on male Sprague-Dawley rats weighing 250-350 g. Animals were kept under a 12-hour light-dark cycle with food and water available ad libitum. Each rat was used only once. Procedures of infusion of chemicals into the brain and for measurement of heart rate were as reported by Wei, et al., Life Science, supra, and Wei, J. Pharmacol. Exp. Ther. 21b: 12-18 (1981).
The median effective dose of drugs (ED50) for producing bradycardia was determined in animals anesthetized with 2.5% urethane solution in saline, administered 1.25 g/kg i.p. Drugs, dissolved in distilled water, were injected intravenously into a cannulated femoral vein in a volume of 0.05 ml/100 gm body weight delivered over a period of less than 3 seconds. The pH of the solutions ranged from 5.8 to 6.8 units. The blood pressure was obtained from the left cannulated carotid artery. A Narcobiosystems type 7302 cardiotachometer couple was used to integrate heart rate from the individual oscillations in blood pressure due to the heart beat, and heart rate was recorded on a polygraph recorder. The baseline heart rate (HR1) was defined as the lowest rate observed in the two minutes before drug administration. The magnitude of the change in heart rate was calculated as [(HR2 -HR1)/HR1 ]×100%, with the second heart rate (HR2) measured as the lowest rate observed in the three minutes after drug injection. […]

[5] = synthetic product; cited from earlier work
[6] = tested on: rats; conditions: administered intravenously (i.v.); Wei et al., Life Sciences; cited from earlier work

| Substance | effect of prior administration on sensitivity to morphine sulfate bradycardia (ED50 of morphine sulfate for greater than 10% fall in heart rate) [4] | median effective dose (ED50) for lowering of heart rate and blood pressure [6] | also measured |
| --- | --- | --- | --- |
| Dynorphin |  |  | agonist properties [1]: potent agonist properties; agonist properties [2]: potent agonist properties |
| dynorphin(1-13) | enhances sensitivity |  | analgesia [3]: relatively weak in producing analgesia; activity in enhancing sensitivity relative to Leu-enkephalin ([4]; subcutaneously 30 minutes before morphine sulfate): about 5 times; potency in bioassays versus the naturally occurring peptide [5]: as potent in bioassays as the naturally occuring peptide |
| beta-endorphin: endogenous opioid peptide |  | 0.07 µmol/kg |  |
| methionine-enkephalin |  | 1.3 µmol/kg |  |
| Leu-enkephalin | enhances sensitivity | 1.5 µmol/kg |  |
